Measured values from ChEMBL document CHEMBL3217607, “Discovery and structural modification of novel inhibitors of PTP1B inspired by the ACT fragment of scleritodermin A” (Medchemcomm, 2011).
pIC50: −log10 of the molar value.

Target: T1, Tyrosine-protein phosphatase non-receptor type 1 (Homo sapiens, UniProt P18031)
T1 sequence (P18031 whole entry): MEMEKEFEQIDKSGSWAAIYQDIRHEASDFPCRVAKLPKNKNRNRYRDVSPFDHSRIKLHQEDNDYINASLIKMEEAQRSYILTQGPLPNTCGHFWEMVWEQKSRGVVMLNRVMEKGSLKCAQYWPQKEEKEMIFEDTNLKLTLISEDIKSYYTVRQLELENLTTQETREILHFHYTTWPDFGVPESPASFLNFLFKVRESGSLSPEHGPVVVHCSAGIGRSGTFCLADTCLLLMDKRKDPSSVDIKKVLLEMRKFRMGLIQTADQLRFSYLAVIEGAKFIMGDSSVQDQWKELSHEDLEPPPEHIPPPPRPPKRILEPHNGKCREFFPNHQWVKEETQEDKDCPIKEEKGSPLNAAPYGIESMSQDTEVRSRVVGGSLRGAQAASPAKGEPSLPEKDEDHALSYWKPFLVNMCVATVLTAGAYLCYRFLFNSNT
Assay: Inhibition of GST-tagged PTP1B (unknown origin) using pNPP as substrate measured for 2 mins by spectrophotometry

pIC50 | SMILES
4.80 | COC(=O)CCNC(=O)/C(C)=C\C(C)=C\c1csc(C(Cc2ccc(OCc3ccccc3)cc2)NC(=O)OC(C)(C)C)n1 (single isomer, unassigned)
< 4.40 | CCOC(=O)C(C)CC(C)Cc1csc([C@H](Cc2ccc(OCc3ccccc3)cc2)NC(=O)C2CCCCC2)n1 (stereo partly specified)
5.15 | CCOC(=O)COC(=O)/C(C)=C\C(C)=C\c1csc(C(Cc2ccc(OCc3ccccc3)cc2)NC(=O)OC(C)(C)C)n1 (single isomer, unassigned)
< 4.44 | CCOC(=O)/C(C)=C\C(C)=C\c1csc([C@H](Cc2ccc(OCc3ccccc3)cc2)NC(=O)c2ccccc2)n1
4.90 | CCOC(=O)CCCOC(=O)/C(C)=C\C(C)=C\c1csc(C(Cc2ccc(OCc3ccccc3)cc2)NC(=O)OC(C)(C)C)n1 (single isomer, unassigned)
5.02 | CCOC(=O)CCCCOC(=O)/C(C)=C\C(C)=C\c1csc(C(Cc2ccc(OCc3ccccc3)cc2)NC(=O)OC(C)(C)C)n1 (single isomer, unassigned)
5.03 | CCOC(=O)/C(C)=C\C(C)=C\c1csc([C@H](Cc2ccc(OCc3ccccc3)cc2)NC(=O)c2cc3ccccc3s2)n1
< 4.40 | CCOC(=O)/C(C)=C\c1csc([C@H](Cc2ccc(OCc3ccccc3)cc2)NC(=O)C2CCCCC2)n1
4.91 | CCOC(=O)CNC(=O)/C(C)=C\C(C)=C\c1csc(C(Cc2ccc(OCc3ccccc3)cc2)NC(=O)OC(C)(C)C)n1 (single isomer, unassigned)
5.25 | CCOC(=O)COC(=O)/C(C)=C\C(C)=C\c1csc([C@H](Cc2ccc(OCc3ccccc3)cc2)NC(=O)[C@H](Cc2c[nH]c3ccccc23)NC(=O)OC(C)(C)C)n1
4.79 | CCOC(=O)/C(C)=C\C(C)=C\c1csc([C@H](Cc2ccc(OCc3ccccc3)cc2)NC(=O)C(C)C)n1
4.89 | CCOC(=O)/C(C)=C\C(C)=C/c1csc([C@H](Cc2ccc(OCc3ccccc3)cc2)NC(=O)C2CCCCC2)n1
4.70 | CCOC(=O)/C(C)=C\C(C)=C\c1csc([C@H](Cc2ccc(OCc3ccccc3)cc2)NC(=O)C2CC2)n1
4.74 | CCOC(=O)/C(C)=C\C(C)=C\c1csc([C@H](Cc2ccc(OCc3ccccc3)cc2)NC(=O)c2ccco2)n1
4.75 | CCOC(=O)/C(C)=C\C(C)=C\c1csc([C@H](Cc2ccc(OCc3ccccc3)cc2)NC(=O)C2CCCC2)n1
5.05 | CCOC(=O)/C(C)=C\C(C)=C\c1csc([C@H](Cc2ccc(OCc3ccccc3)cc2)NC(=O)c2ccc(F)cc2)n1
